Test results: US20060069132A1, “Azolecarboxamide herbicides” (priority 2004, published 2006)

Columns and labels:
barnyardgrass [1] = assay: Test B pre-/postemergence herbicide test; format: in vivo, Echinochloa crus-galli; details: for Barnyardgrass plant response rating: scale 0 (no effect) to 100 (complete control)
Procedure, shortened: (§1)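 Pre: seeds sown, then sprayed. Post: 1–4-leaf plants (2–18 cm) sprayed at the same time. Paddy: flooded, treated at 2-leaf stage. Formulation: non-phytotoxic solvent with surfactant. Greenhouse 13–15 days; visual 0–100 score relative to controls.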

Surinam grass = assay: Test B pre-/postemergence herbicide test; format: in vivo, Urochloa decumbens; details: for Surinam Grass plant response rating: scale 0 (no effect) to 100 (complete control)
Procedure, shortened: (§2)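 Test chemicals in a non-phytotoxic solvent mixture with surfactant were applied preemergence to seeded species and postemergence to plants 2-18 cm tall (1- to 4-leaf stage); rice and barnyardgrass were also tested in a flooded paddy at the 2-leaf stage. Visual rating versus controls after 13-15 days in greenhouse, scale 0 (no effect) to 100 (complete control).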

cocklebur = assay: Test B pre-/postemergence herbicide test; format: in vivo, Xanthium strumarium; details: for Cocklebur plant response rating: scale 0 (no effect) to 100 (complete control)
Procedure, shortened: as §1

corn = assay: Test B pre-/postemergence herbicide test; format: in vivo, Zea mays; details: for Corn plant response rating: scale 0 (no effect) to 100 (complete control)
Procedure, shortened: as §2

large crabgrass = assay: Test B pre-/postemergence herbicide test; format: in vivo, Digitaria sanguinalis; details: for Crabgrass, Large plant response rating: scale 0 (no effect) to 100 (complete control)
Procedure, shortened: as §2

giant foxtail = assay: Test B pre-/postemergence herbicide test; format: in vivo, Setaria faberi; details: for Foxtail, Giant plant response rating: scale 0 (no effect) to 100 (complete control)
Procedure, shortened: as §2

lambsquarters = assay: Test B pre-/postemergence herbicide test; format: in vivo, Chenopodium album; details: for Lambsquarters plant response rating: scale 0 (no effect) to 100 (complete control)
Procedure, shortened: as §2

morningglory = assay: Test B pre-/postemergence herbicide test; format: in vivo, Ipomoea coccinea; details: for Morningglory plant response rating: scale 0 (no effect) to 100 (complete control)
Procedure, shortened: as §1

pigweed = assay: Test B pre-/postemergence herbicide test; format: in vivo, Amaranthus retroflexus; details: for Pigweed plant response rating: scale 0 (no effect) to 100 (complete control)
Procedure, shortened: as §2

velvetleaf = assay: Test B pre-/postemergence herbicide test; format: in vivo, Abutilon theophrasti; details: for Velvetleaf plant response rating: scale 0 (no effect) to 100 (complete control)
Procedure, shortened: as §2

blackgrass = assay: Test B postemergence herbicide test; format: in vivo, Alopecurus myosuroides; details: scale 0 (no effect) to 100 (complete control)
Procedure, shortened: (§3)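 Read-out: visual comparison with controls, scored 0 to 100, where 100 means complete control and 0 no effect. Formulated chemicals were applied postemergence to plants 2–18 cm tall (1- to 4-leaf), or to flooded-paddy plants at the 2-leaf stage, then held 13 to 15 days under glass.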

wheat = assay: Test B postemergence herbicide test; format: in vivo, Triticum aestivum; set-up: key to Wheat plant response rating: 0 = no effect, 100 = complete control
Procedure, shortened: (§4)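 Scale 0–100: zero equals no visible effect, 100 complete control, judged by eye relative to controls. Timing: 13 to 15 days in greenhouse post-treatment. Growth stage at spraying: two leaves (paddy) or one to four leaves, 2–18 cm (postemergence).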

wild oat = assay: Test B postemergence herbicide test; format: in vivo, Avena fatua; details: scale 0 (no effect) to 100 (complete control)
Procedure, shortened: as §4

rice [2] = assay: Test B flooded paddy test; format: in vivo, Oryza sativa; details: 1000 g ai/ha, scale 0 to 100 (0 no effect, 100 complete control)
Procedure, shortened: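 Paddy species grown to the 2-leaf stage under flooding; blackgrass sprayed postemergence at 2–18 cm (1- to 4-leaf stage). Plants kept in a greenhouse for 13 to 15 days, then visually rated against controls on 0 (no effect) to 100 (complete control).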

[3] = system: small flower umbrella sedge; assay: Test B flooded paddy test; format: in vivo, Cyperus difformis; details: 1000 g ai/ha, scale 0 to 100 (0 no effect, 100 complete control)
Procedure, shortened: as §3

ducksalad [4] = assay: Test B flooded paddy test; format: in vivo, Heteranthera limosa; details: 1000 g ai/ha, scale 0 to 100 (0 no effect, 100 complete control)
Procedure, shortened: as §3

barnyardgrass [5] = assay: Test B flooded paddy test; format: in vivo, Echinochloa crus-galli; details: 1000 g ai/ha, scale 0 to 100 (0 no effect, 100 complete control)
Procedure, shortened: as §3

rice [6] = assay: Test C flooded paddy test; format: in vivo, Oryza sativa
Procedure, shortened: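 Injury scored visually against controls on a 0 (no effect) to 100 (complete control) scale, 12 to 14 days after treatment in greenhouse. Flooded paddy plants treated at 2-leaf stage; postemergence plants at 1- to 4-leaf stage, 2 to 18 cm tall.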

[7] = system: smallflower umbrella sedge; assay: Test C flooded paddy test; format: in vivo, Cyperus difformis
ducksalad [8] = assay: Test C flooded paddy test; format: in vivo, Heteranthera limosa
barnyardgrass [9] = assay: Test C flooded paddy test; format: in vivo, Echinochloa crus-galli
Procedure, shortened: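 Scoring by eye, 12–14 days post-treatment, greenhouse-held plants vs. controls; 0 no effect, 100 complete control. Sprayed at 1–4 leaves (2–18 cm); paddy barnyardgrass at 2 leaves, flooded.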

[10] = 125 g ai/ha, 0 is no effect, 100 is complete control, preemergence
[11] = 125 g ai/ha, visual rating, postemergence
[12] = 125 g ai/ha, scale 0 to 100 (0 no effect, 100 complete control)
[13] = 250 g ai/ha, scale of 0 to 100, 0 is no effect, 100 is complete control
[14] = 500 g ai/ha, visual rating after 12 to 14 days, scale 0 to 100 (0 no effect, 100 complete control)

Cc1nn(C(C)C)nc1C(=O)Nc1cccc(C(=O)N2CC=CC2)c1 [Compound 406]
Plant response rating (0 to 100 scale), Barnyardgrass (barnyardgrass [1]; [10]): 40
Barnyardgrass plant response rating (barnyardgrass [1]; [11]): 10
Barnyardgrass plant response rating (barnyardgrass [1]; Postemergence, 500 g ai/ha): 20
Plant response rating (0 to 100 scale), Surinam Grass (Surinam grass; [10]): 20
Surinam Grass plant response rating (Surinam grass; [11]): 0
Surinam Grass plant response rating (Surinam grass; Postemergence, 500 g ai/ha): 20
Plant response rating (0 to 100 scale), Cocklebur (cocklebur; [10]): 0
Cocklebur plant response rating (cocklebur; [11]): 20
Cocklebur plant response rating (cocklebur; Postemergence, 500 g ai/ha): 50
Plant response rating (0 to 100 scale), Corn (corn; [10]): 0
Corn plant response rating (corn; [11]): 0
Corn plant response rating (corn; Postemergence, 500 g ai/ha): 10
Plant response rating (0 to 100 scale), Crabgrass, Large (large crabgrass; [10]): 90
Crabgrass, Large plant response rating (large crabgrass; [11]): 10
Crabgrass, Large plant response rating (large crabgrass; Postemergence, 500 g ai/ha): 20
Plant response rating (0 to 100 scale), Foxtail, Giant (giant foxtail; [10]): 20
Foxtail, Giant plant response rating (giant foxtail; [11]): 30
Foxtail, Giant plant response rating (giant foxtail; Postemergence, 500 g ai/ha): 40
Plant response rating (0 to 100 scale), Lambsquarters (lambsquarters; [10]): 90
Lambsquarters plant response rating (lambsquarters; [11]): 50
Lambsquarters plant response rating (lambsquarters; Postemergence, 500 g ai/ha): 60
Plant response rating (0 to 100 scale), Morningglory (morningglory; [10]): 10
Morningglory plant response rating (morningglory; [11]): 20
Morningglory plant response rating (morningglory; Postemergence, 500 g ai/ha): 60
Plant response rating (0 to 100 scale), Pigweed (pigweed; [10]): 50
Pigweed plant response rating (pigweed; [11]): 40
Pigweed plant response rating (pigweed; Postemergence, 500 g ai/ha): 50
Plant response rating (0 to 100 scale), Velvetleaf (velvetleaf; [10]): 10
Velvetleaf plant response rating (velvetleaf; [11]): 20
Velvetleaf plant response rating (velvetleaf; Postemergence, 500 g ai/ha): 30
Blackgrass plant response rating (blackgrass; [11]): 10
Blackgrass plant response rating (blackgrass; Postemergence, 500 g ai/ha): 20
Wheat plant response rating (wheat; 125 g ai/ha, visual rating, scale 0 (no effect) to 100 (complete control), postemergence): 0
Wheat plant response rating (wheat; 500 g ai/ha, scale 0 to 100, 0 no effect, 100 complete control, preemergence): 40
Wheat plant response rating (wheat; Postemergence, 500 g ai/ha, scale 0 (no effect) to 100 (complete control)): 0
Oat, Wild plant response rating (wild oat; [11]): 0
Oat, Wild plant response rating (wild oat; Postemergence, 500 g ai/ha): 10
Rice plant response rating (rice [2]): 60
Sedge, Umbrella plant response rating [3]: 90
Ducksalad plant response rating (ducksalad [4]): 90
Barnyardgrass plant response rating (barnyardgrass [5]): 90
Rice plant response rating (rice [6]; 62 g ai/ha, scale 0 to 100): 20
Rice plant response rating (rice [6]; [12]): 35
Rice plant response rating (rice [6]; [13]): 40
Plant response rating, Rice (rice [6]; [14]): 45
Sedge, Umbrella plant response rating ([7]; 62 g ai/ha, scale 0 to 100): 75
Sedge, Umbrella plant response rating [7, 12]: 75
Sedge, Umbrella plant response rating [7, 13]: 75
Plant response rating, Sedge, Umbrella [7, 14]: 75
Ducksalad plant response rating (ducksalad [8]; 62 g ai/ha, scale 0 to 100): 20
Ducksalad plant response rating (ducksalad [8]; [12]): 20
Ducksalad plant response rating (ducksalad [8]; [13]): 50
Plant response rating, Ducksalad (ducksalad [8]; [14]): 75
Barnyardgrass plant response rating (barnyardgrass [9]; 62 g ai/ha, scale 0 to 100 (0 no effect, 100 complete control)): 10
Barnyardgrass plant response rating (barnyardgrass [9]; [12]): 25
Barnyardgrass plant response rating (barnyardgrass [9]; [13]): 30
Plant response rating, Barnyardgrass (barnyardgrass [9]; [14]): 40
